Values of other authors as cited in patent US10550245B2, “Alternative methods to control crosslinking in high impact polystyrene” (Fina Technology, Inc., priority 2015, dated 2020).
Read-outs that look alike come from different tables or passages of the source.

## CCCCCCCCSc1nc(Nc2cc(C(C)(C)C)c(O)c(C(C)(C)C)c2)nc(SCCCCCCCC)n1 [BNX ® 565, 2,6-di-tert-butyl-4-(4,6-bis(octylthio)-1,3,5-triazin-2-ylamino)phenol]
Table 2
  Solubility (wt. %), Acetone: 20 wt. %
  Solubility (wt. %), Benzene: 43 wt. %
  Solubility (wt. %), Chloroform: 39 wt. %
  Solubility (wt. %), Ethyl Acetate: 46 wt. %
  Solubility (wt. %), Hexane: 6 wt. %
  Solubility (wt. %), Methanol: 1.4 wt. %
  Solubility (wt. %), Water: <0.01 wt. %

## CC(C)(C)c1cc(CCC(=O)OCC(COC(=O)CCc2cc(C(C)(C)C)c(O)c(C(C)(C)C)c2)(COC(=O)CCc2cc(C(C)(C)C)c(O)c(C(C)(C)C)c2)COC(=O)CCc2cc(C(C)(C)C)c(O)c(C(C)(C)C)c2)cc(C(C)(C)C)c1O [BNX ® 1010, tetrakis[methylene-3(3′,5′-di-tert-butyl-4-hydroxyphenyl)propionate]methane]
10 g/100 ml Toluene, 25° C.
  Solubility (10 g/100 ml Toluene): Clear (25° C.)
At 25° C., Table 5B
  Solubility, Acetone: 47%
  Solubility, Benzene: 56%
  Solubility, Chloroform: 71%
  Solubility, Ethanol: 1.5%
  Solubility, Ethyl Acetate: 46%
  Solubility, Hexane: 0.3%
  Solubility, Methanol: 1%
  Solubility, Methylene Chloride: 63%
  Solubility, Toluene: 60%
  Solubility, Water: <0.01% ^

## CC(C)(C)c1cc(CCC(=O)NCCCCCCNC(=O)CCc2cc(C(C)(C)C)c(O)c(C(C)(C)C)c2)cc(C(C)(C)C)c1O [BNX ® 1098]
At 25° C.
  Solubility, 80% Caprolactam + 20% water: 3 g/100 ml solvent
  Solubility, 95% Caprolactam + 5% water: >20 g/100 ml solvent
  Solubility, Acetone: 2 g/100 ml solvent
  Solubility, Benzene: 0.01 g/100 ml solvent
  Solubility, Caprolactam: >20 g/100 ml solvent
  Solubility, Chloroform: 6 g/100 ml solvent
  Solubility, Ethyl Acetate: 1 g/100 ml solvent
  Solubility, Hexane: 0.01 g/100 ml solvent
  Solubility, Methanol: 6 g/100 ml solvent
  Solubility, Water: 0.01 g/100 ml solvent
